Laboratory results from ChEMBL document CHEMBL5543094, “Exploration of P1 and P4 modifications of nirmatrelvir: Design, synthesis, biological evaluation, and X-ray structural studies of SARS-CoV-2 Mpro inhibitors” (Eur J Med Chem, 2024).

Legend:
Format in all cases: functional, organism-based
[1] = system: SARS-CoV-2; experiment: Antiviral activity against SARS-CoV-2 Wuhan 5-2N variant infected in African green monkey Vero E6 cells measured 3 days post infection by WST-8 assay; conditions: Severe acute respiratory syndrome coronavirus 2, Wuhan 5-2N, Vero C1008, 72 h
[2] = system: SARS-CoV-2; experiment: Antiviral activity against SARS-CoV-2 Omicron 929 variant infected in African green monkey Vero E6 cells measured 7 days post infection by WST-8 assay; conditions: Severe acute respiratory syndrome coronavirus 2, Omicron 929, Vero C1008, 168 h
[3] = system: SARS-CoV-2; experiment: Antiviral activity against SARS-CoV-2 Gamma TY7 variant infected in African green monkey Vero E6 cells measured 3 days post infection by WST-8 assay; conditions: Severe acute respiratory syndrome coronavirus 2, Gamma TY7, Vero C1008, 72 h
[4] = system: SARS-CoV-2; experiment: Antiviral activity against SARS-CoV-2 Beta TY8 variant infected in African green monkey Vero E6 cells measured 3 days post infection by WST-8 assay; conditions: Severe acute respiratory syndrome coronavirus 2, Beta TY8, Vero C1008, 72 h
[5] = system: SARS-CoV-2; experiment: Antiviral activity against SARS-CoV-2 Delta K1734 variant infected in African green monkey Vero E6 cells measured 3 days post infection by WST-8 assay; conditions: Severe acute respiratory syndrome coronavirus 2, Delta K1734, Vero C1008, 72 h
[6] = system: SARS-CoV-2; experiment: Antiviral activity against SARS-CoV-2 Alpha QK002 variant infected in African green monkey Vero E6 cells measured 3 days post infection by WST-8 assay; conditions: Severe acute respiratory syndrome coronavirus 2, Alpha QK002, Vero C1008, 72 h

| SMILES | EC50 [1] [nM] | EC50 [2] [nM] | EC50 [3] [nM] | EC50 [4] [nM] | EC50 [5] [nM] | EC50 [6] [nM] |
| --- | --- | --- | --- | --- | --- | --- |
| CCC(CC)COC(=O)[C@H](C)N[P@](=O)(OC[C@H]1O[C@@](C#N)(c2ccc3c(N)ncnn23)[C@H](O)[C@@H]1O)Oc1ccccc1 | 3800 | 4200 | 2600 | 2800 | 2900 | 3500 |
| CC(C)(C)[C@H](NC(=O)C(F)(F)F)C(=O)N1C[C@H]2[C@@H]([C@H]1C(=O)N[C@H](C#N)C[C@@H]1CCNC1=O)C2(C)C | 3000 | 3100 | 4000 | 3700 | 2900 | 2500 |
| CC(C)(C)[C@H](NC(=O)C(Cl)(Cl)Cl)C(=O)N1C[C@H]2[C@@H]([C@H]1C(=O)N[C@H](C#N)C[C@@H]1CCCNC1=O)C2(C)C | 700 | 4000 | 2000 | 2400 | 600 | 800 |
